Experimental findings from ChEMBL document CHEMBL1201862, “PubChem BioAssay data set” (2004) are described below.

SMILES strings stand for the structures.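 Cultured in 96-well plates, cells were exposed to test compound for 48 hours across five concentrations. Here, GI50 denotes the concentration required for 50% inhibition of growth.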 The source made the active and inactive calls. Cut-off read from the data, not from the text of the source: active = GI50 up to about 1.1 µM and inactive = higher.

Among the test systems are SK-MEL-28; UACC-257; HCC 2998; SK-OV-3; SK-MEL-5; RPMI-8226; HOP-62; HT-29; K562; CCRF-CEM; ACHN; 786-0; SK-MEL-2; SR; NCI-H226; OVCAR-4; MDA-MB-231; DU-145; NCI/ADR-RES.
Assay in all cases: NCI tumour cell line growth inhibition, 48 h

Turning to `CCOC(=O)C(C)NC(=O)NC12CC3CC(CC(F)(C3)C1)C2` (stereo not drawn), the GI50 with SK-MEL-28 is > 100 µM (inactive); with UACC-257 it was 70.1 µM (inactive); in the test on HCC 2998, 31.8 µM (inactive); in the test with SK-OV-3 it was > 100 µM (inactive); with SK-MEL-5, 46 µM (inactive); with RPMI-8226, 88.3 µM (inactive). Moreover, the GI50 in the test with HOP-62 was > 100 µM (inactive); with HT-29 it was > 100 µM (inactive); in the test with K562 it was > 100 µM (inactive); with CCRF-CEM, 76.7 µM (inactive); with ACHN, > 100 µM (inactive); with 786-0, > 100 µM (inactive). Also, the GI50 in the test with SK-MEL-2 is > 100 µM (inactive).

With `NC(=O)Cn1c(=O)[nH]c(=O)c2[nH]cnc21`, the GI50 with SK-MEL-28, with UACC-257, in the test with HCC 2998, in the test with SK-OV-3, in the test with SR and with SK-MEL-5 was > 100 µM (inactive) in each case. The GI50 with HOP-62, in the test with HT-29, in the test with K562, with CCRF-CEM, with ACHN and in the test with NCI-H226 was > 100 µM (inactive) each time. Also, the GI50 in the test on 786-0 and with SK-MEL-2 was > 100 µM (inactive) each time.

`C=CCc1c(O)c2c(c3oc(=O)cc(C)c13)CC(C)O2` (stereo not drawn): the GI50 is > 100 µM (inactive) in the test on UACC-257; > 100 µM (inactive) with HCC 2998; > 100 µM (inactive) with SK-OV-3; > 100 µM (inactive) with SR; > 100 µM (inactive) in the test with SK-MEL-5; 60.8 µM (inactive) with RPMI-8226. In addition, the GI50 was > 100 µM (inactive) in the test with HOP-62; 57.7 µM (inactive) in the test with HT-29; > 100 µM (inactive) with OVCAR-4; > 100 µM (inactive) with K562; 50.4 µM (inactive) in the test on CCRF-CEM; > 100 µM (inactive) in the test on ACHN. The GI50 in the test with NCI-H226 is 41.5 µM (inactive); with SK-MEL-2, > 100 µM (inactive).

On to `N#C/C(=C/n1c(=S)[nH]c2ccc([N+](=O)[O-])cc21)C(N)=O`, for which the GI50 in the test with SK-MEL-28, in the test with UACC-257, in the test on SK-OV-3, in the test with MDA-MB-231, with SR and in the test with SK-MEL-5 was > 100 µM (inactive) in each case. The GI50 in the test with RPMI-8226, with DU-145, with HOP-62, with HT-29, in the test with OVCAR-4 and in the test with NCI/ADR-RES was > 100 µM (inactive) each time. The GI50 in the test with CCRF-CEM, with ACHN, with NCI-H226, in the test with 786-0 and with SK-MEL-2 was > 100 µM (inactive) in each case.

With `CC(=O)OC1CCC2(C)C3CCC4(C)C(c5ccc(=O)oc5)CC5OC54C3CCC2(O)C1` (stereo not drawn), the GI50 with SK-MEL-28 was 4.27 µM (inactive); in the test with UACC-257 it was 3.04 µM (inactive); in the test on HCC 2998 it was 2.98 µM (inactive); in the test on SK-OV-3 it was 4.49 µM (inactive); in the test on SK-MEL-5, 0.714 µM (active); in the test with RPMI-8226 it was 0.869 µM (active). The GI50 is 0.811 µM (active) in the test on HOP-62; 2.19 µM (inactive) in the test with HT-29; 2.3 µM (inactive) in the test on OVCAR-4; 0.979 µM (active) in the test on K562; 1.08 µM (active) in the test on NCI/ADR-RES; 0.631 µM (active) in the test on CCRF-CEM. Moreover, the GI50 in the test on NCI-H226 was 4.72 µM (inactive); in the test on SK-MEL-2, 4.86 µM (inactive).

With `CON(C)c1nc(N(C)OC)nc(N(C)OC)n1`, the GI50 with SK-MEL-28, in the test on HCC 2998, in the test on SK-OV-3, with MDA-MB-231, in the test with SR and with SK-MEL-5 was > 10 µM (inactive) each time. Besides, the GI50 with RPMI-8226, in the test on DU-145, with HOP-62, in the test with HT-29, in the test with OVCAR-4 and in the test on K562 was > 10 µM (inactive) throughout. Further, the GI50 with NCI/ADR-RES, in the test on CCRF-CEM, with ACHN, with NCI-H226 and with SK-MEL-2 was > 10 µM (inactive) each time.

On to `O=C(N/N=C/c1cc(Br)cc(Br)c1O)c1ccccc1O`, for which the GI50 was 0.708 µM (active) in the test with SK-MEL-28; 2.26 µM (inactive) in the test with UACC-257; 1.03 µM (active) with HCC 2998; 1.06 µM (active) in the test on SK-OV-3; 0.258 µM (active) in the test with SR; 1.07 µM (active) in the test with SK-MEL-5. Further, the GI50 in the test with HOP-62 is 0.832 µM (active); in the test on HT-29, 3.38 µM (inactive); in the test on OVCAR-4 it was 0.267 µM (active); in the test with ACHN, 0.436 µM (active); in the test with NCI-H226 it was 0.32 µM (active); in the test with SK-MEL-2 it was 0.433 µM (active).

Turning to `O=C(NC1C=Nc2ccc([N+](=O)[O-])cc2NC1=O)c1cc(Cl)cc([N+](=O)[O-])c1` (stereo not drawn), the GI50 in the test on SK-MEL-28 is > 100 µM (inactive); in the test on UACC-257, > 100 µM (inactive); in the test on HCC 2998, > 100 µM (inactive); in the test with SK-OV-3, > 100 µM (inactive); in the test on SR, 72.3 µM (inactive); in the test with SK-MEL-5, > 100 µM (inactive). In addition, the GI50 is 44.2 µM (inactive) in the test on RPMI-8226; > 100 µM (inactive) with HOP-62; > 100 µM (inactive) with HT-29; > 100 µM (inactive) in the test with OVCAR-4; 38.8 µM (inactive) in the test on K562; 20.8 µM (inactive) in the test with CCRF-CEM. The GI50 in the test with ACHN, in the test on NCI-H226 and in the test with SK-MEL-2 was > 100 µM (inactive) in each case.

In the case of `CC1=C2C(O)C(C(C)C(=O)NC(C)C)CCC2(C)C=CC1=O` (stereo not drawn), the GI50 in the test with SK-MEL-28, with UACC-257, in the test on HCC 2998, in the test with SK-OV-3, in the test on SK-MEL-5 and in the test on RPMI-8226 was > 100 µM (inactive) each time. Further, the GI50 with HOP-62, in the test on HT-29, in the test with OVCAR-4, in the test on K562, in the test on NCI/ADR-RES and in the test with CCRF-CEM was > 100 µM (inactive) in each case. Besides, the GI50 in the test on NCI-H226 and in the test on SK-MEL-2 was > 100 µM (inactive) in each case.

On to `N#CN=C(NCCO)NCCO`, for which the GI50 with SK-MEL-28, in the test with UACC-257, in the test on HCC 2998, with SK-OV-3, with SR and in the test with RPMI-8226 was > 100 µM (inactive) in each case. Further, the GI50 with HOP-62, with HT-29, with OVCAR-4, in the test on CCRF-CEM, with ACHN and in the test with NCI-H226 was > 100 µM (inactive) throughout. The GI50 with SK-MEL-2 was > 100 µM (inactive).
